Measured values as given in PMC7017074 (Cancers, 2020).

How the values were obtained:
[1] = Serum drug concentration following an intravenous injection; assay type: in vivo, Balb/c mice
Protocol: The mice were sacrificed after 2 h and 24 h of tail-vein injection (n = 5). The organs such as the liver, kidney, heart, spleen, lungs, and brain, as well as the tumor tissues, were isolated and kept in lysis buffer (pH 7.4) and kept at −150 °C in a freezer until further analysis. Additionally, the weights of all the organs and tumor tissues were measured for quantitative analysis of the presence of drug-loaded NPs.
To determine the serum level of total drug-loaded NPs, blood samples of all the mice treated (n = 5) were collected by cardiac puncture using a 1-mL syringe with a 25G needle. A secondary method of euthanasia was performed after a cardiac puncture to sacrifice the animal. The blood samples were collected at two time points of analysis (2 h and 24 h of treatment). The blood samples were allowed to clot by leaving them at room temperature and then centrifuged at 10,000 rpm for 30 min at 4 °C to collect the supernatant serum. Afterward, 100 µL of each serum sample was collected and stored at −80 °C until it was assayed. The fluorescence emission of serum was measured using Perkin Elmer 2030 manager software attached to a 2030 multilabel reader victor X5 (Perkin Elmer) at 485/535 nm. The data were illustrated as means ± SD in RFU/100 µL of serum.

[2] = Animal biodistribution study (organ and tumor distribution of DOX); assay type: in vivo, Balb/c mice; settings: for DOX in heart / DOX in kidney / DOX in liver / DOX in lungs / DOX in spleen / DOX in tumor: 4T1 tumor mice, IV DOX 5 mg/kg
Protocol: Organs were homogenized and lysed with a lysis reagent (sodium fluoride and stable stock lysis buffer). The mixture was centrifuged at 8000 rpm at 4 °C for 50 min. The supernatant was collected in 1.5-mL microcentrifuge tubes. […] The data were presented as means ± SD in relative fluorescence units (RFU)/mg of organ weight.

4T1 cells = assay: Tumor regression study in murine breast cancer model; assay type: in vivo, Balb/c mice
Protocol: Murine breast cancer-derived 4T1 cells were cultured in complete DMEM (cDMEM) medium (pH 7.4) containing 1% penicillin and streptomycin antibiotic and 10% FBS in a 25-cm^2 flask, and the cell-containing flask was placed in a humidified incubator at 37 °C with 5% CO2. The cells were collected from the exponential growth phase and exposed to the trypsinization process, followed by repeated washing through centrifugation steps; they were then stained with trypan blue, counted using a hemocytometer, and then re-suspended in cDMEM medium at a concentration of 10^6 cells/mL. From this cell stock medium, the calculated volume of cell-containing medium was mixed with 100 µL of PBS (pH 7.4) to ensure 10^5 cells/100 µL for injecting in an animal model.
All animals were kept under 12-h/12-h light/dark conditions with free access to ab libitum and water.
Approximately 1 × 10^5 4T1 cells/100 µL in PBS were subcutaneously injected on the mammary pad. […] The length and width of an outgrowth tumor were estimated in mm by using a digital Vernier caliper over the period of 27 days, and the mice were sacrificed humanely via euthanasia, followed by measuring the weight of different organs of the mice. The body weights of mice with an induced tumor were measured in three-day intervals. The tumor volume data were presented as means ± SD of five different mice from each group. The following formula was used to calculate the tumor volume: Tumour volume (mm^3)=1/2 (Length×Width^2).
All the different mixtures with or without the drug were placed in an incubator for 30 min at 37 °C.
For the tumor regression study, one group of tumor-bearing mice was kept untreated as a negative control, the other tumor-bearing mice groups were treated with drug-free NPs or CYP only (dose of 0.3 mg/kg) as a positive control, and the remaining breast tumor-bearing mice were injected with CYP-loaded NPs (dose of 0.3 mg/kg) as a treatment group. […]

[3] = tumor-bearing mice, 25 days, vs untreated group; CYP 0.3 mg/kg BW
Protocol: Approximately 1 × 10^5 4T1 cells/100 µL in PBS were subcutaneously injected on the mammary pad. […] The length and width of an outgrowth tumor were estimated in mm by using a digital Vernier caliper over the period of 27 days, and the mice were sacrificed humanely via euthanasia, followed by measuring the weight of different organs of the mice. The body weights of mice with an induced tumor were measured in three-day intervals. The tumor volume data were presented as means ± SD of five different mice from each group.
For the tumor regression study, one group of tumor-bearing mice was kept untreated as a negative control, the other tumor-bearing mice groups were treated with drug-free NPs or CYP only (dose of 0.3 mg/kg) as a positive control, and the remaining breast tumor-bearing mice were injected with CYP-loaded NPs (dose of 0.3 mg/kg) as a treatment group. […] The treatment was given at day 14 from tumor inoculation through the right or left caudal tail-vein, and the tumor volume was checked throughout the treatment period using a digital Vernier caliper.

COc1cccc2c1C(=O)c1c(O)c3c(c(O)c1C2=O)C[C@@](O)(C(=O)CO)C[C@@H]3O[C@H]1C[C@H](N)[C@H](O)[C@H](C)O1 [Free DOX, doxorubicin]
serum drug concentration, 2 h (%) ([1]; 2 h, Supplementary Table 3): 2.02%
serum drug concentration, 24 h (%) ([1]; 24 h, Supplementary Table 3): 1.71%
serum drug concentration, 2 h ([1]; DOX 5 mg/kg, 2 h): 110.53 ± 11.83 ng/100 μL
blood serum fluorescence, 2 h ([1]; DOX 5 mg/kg, 2 h (Figure 6)): 1008.3 ± 431.41 RFU/100 µL
serum drug concentration, 24 h ([1]; DOX 5 mg/kg, 24 h): 93.74 ± 3.89 ng/100 μL
DOX in heart ([2]; 2 h): 2.86 ± 0.23 ng/mg
DOX in kidney ([2]; 2 h): 1.45 ± 0.01 ng/mg
DOX in liver ([2]; 2 h): 0.3 ± 0.01 ng/mg
DOX in lungs ([2]; 2 h): 0.11 ± 0.01 ng/mg
DOX in spleen ([2]; 2 h): 0.13 ± 0.01 ng/mg
DOX in tumor ([2]; 2 h): 0.37 ± 0.01 ng/mg
DOX in tumor ([2]; 2 h, listed as free DOX): 0.37 ± 0.002 ng/mg
DOX in heart ([2]; 24 h): 4.28 ± 0.63 ng/mg
DOX in kidney ([2]; 24 h): 1.45 ± 0.01 ng/mg
DOX in liver ([2]; 24 h): 1.18 ± 0.31 ng/mg
DOX in lungs ([2]; 24 h): 0.14 ± 0.01 ng/mg
DOX in spleen ([2]; 24 h): 0.14 ± 0.01 ng/mg
DOX in tumor ([2]; 24 h): 0.37 ± 0.01 ng/mg
organ distribution, brain (%) ([2]; 2 h, Supplementary Table 1): 0.13%
organ distribution, heart (%) ([2]; 2 h, Supplementary Table 1): 0.41%
organ distribution, kidney (%) ([2]; 2 h, Supplementary Table 1): 0.42%
organ distribution, liver (%) ([2]; 2 h, Supplementary Table 1): 0.35%
organ distribution, lungs (%) ([2]; 2 h, Supplementary Table 1): 0.08%
organ distribution, spleen (%) ([2]; 2 h, Supplementary Table 1): 0.08%
organ distribution, tumor (%) ([2]; 2 h, Supplementary Table 1): 0.08%
organ distribution, brain (%) ([2]; 24 h, Supplementary Table 2): 0.47%
organ distribution, heart (%) ([2]; 24 h, Supplementary Table 2): 0.62%
organ distribution, kidney (%) ([2]; 24 h, Supplementary Table 2): 0.42%
organ distribution, liver (%) ([2]; 24 h, Supplementary Table 2): 1.38%
organ distribution, lungs (%) ([2]; 24 h, Supplementary Table 2): 0.08%
organ distribution, spleen (%) ([2]; 24 h, Supplementary Table 2): 0.08%
organ distribution, tumor (%) ([2]; 24 h, Supplementary Table 2): 0.08%

O=P1(N(CCCl)CCCl)NCCCO1 (stereo not drawn) [free CYP, cyclophosphamide]
tumor size at first treatment (4T1 cells; day 14 after tumor inoculation, when first treatment was administered): 145.89 ± 33.53 mm^3
tumor size, times less than the untreated group (4T1 cells; day 27): ~3.5
tumor size (4T1 cells; day 27, IV, three doses every two days from day 14, CYP 0.3 mg/kg where drug present): 633.33 ± 121.16 mm^3
body weight gain / visible toxicity [3]: significantly slowed the gain
